Experimental data published in patent US11285142B2, “Compositions and methods for identifying and treating dystonia disorders” (DUKE UNIVERSITY, priority 2015, dated 2022).
“Also recorded” adds a separate entry of the source. Counter-ions that a name gives are not always drawn. Like-named read-outs stand apart in the source and are kept apart here.

Columns and labels:
luciferase secretion = assay: C.Luc. Secretion Assay (luciferase secretion, secretory deficits); format: cell-based; settings: for C.Luc. Secretion Assay Secretion EC50 / EC50 / Emax: Table 5; for Emax: read-out: C.Luc. Secretion Assay Secretion Max Efficacy; for correction of secretory deficits (in words): orthogonal assays
Protocol: We tested each shRNA for its ability to rescue a previously described defect in luciferase secretion. Chen, P. et al. (2010) Hum. Mol. Genet. 19, 3502-15; Cao, S. et al. (2010) Dis. Model. Mech. 3, 386-96; Barrows, N. J., et al., (2010)J. Biomol. Screen. 15, 735-47.) DYT1 patient data were obtained from 4 independent patient-derived lines and WT data (black bar) from 3 normal healthy control lines. Each line was tested in 5 independent experiments that included 4 technical replicates each (with the exception of SCD data from 3 independent experiments).
(Cao, S. et al. (2010) Dis. Model. Mech. 3, 386-96.) Subsequent testing of additional HIV protease inhibitors supported the activity of this class of compounds and generated favorable structure-activity relationship (SAR) data from which to design improved compounds (Tables 5 and 6). The results with a subset of compounds were also observed in a Luciferase secretion assay (Tables 5 and 6).

[1] = system: delta-E Torsin1a localization in Flp-In T-REx 293 cells expressing EGFP-delta-E Torsin1a; assay: delta-E Torsin1a mis-localization assay (high-content imaging, % cells with EGFP puncta); format: cell-based, human; settings: for ΔE TorsinA Mislocalization Assay Localization EC50 / EC50 / Emax: Table 5; for effect on delta-E Torsin1a localization (in words): delta-E cell line, dose response; for % pathology CC-v2 (dose response Curve Class) / AC50 / % pathology Max Resp / % pathology Efficacy: Table 6; for AC50: AC = Active Concentration, read-out: % pathology AC50; for % pathology Max Resp / % pathology Efficacy: normalized scale; for % pathology Max Resp: WT-TorsinA line 0%, DYT1 mutant line 100% pathology; for % pathology Efficacy: −100% = WT TorsinA phenotype, 0% = Mutant TorsinA phenotype; for EC50: read-out: ΔE TorsinA Mislocalization Assay Localization EC50; for Emax: read-out: ΔE TorsinA Mislocalization Assay Localization Max Efficacy
Protocol: To limit variation in expression levels associated with random integration or transient expression, single copies of either WT or delta-E human TOR1A cDNAs with N-terminal EGFP fusions were inserted at the FRT site in Flp-In™ T-Rex™ 293 cells (Thermo Fisher Scientific #R780-07) via flippase recombinase-mediated cassette exchange according to the manufacturer's recommended protocols.
The cells were maintained at 37° C./5% CO2. All experiments were performed on cells with fewer than 5 passages.
Torsin1a expression was also controlled by tetracycline induction to avoid selective pressure modifying the cellular phenotypes. […] The mutant phenotype was measured as the percentage of cells with one or more EGFP puncta using automated high-content imaging analysis (see infra).
The image analysis algorithm was developed using the Cellomics ArrayScan V CompartmentAnalysisV2 protocol. Hoechst's nuclear staining (Ch1: excitation 350 nm; emission 461 nm) was used for focusing and for cell identification by nuclear size, shape, and intensity. […] Detected cells were gated according to nuclear area, length-to-width ratio, and perimeter-to-area ratio. For the purpose of analysis, cell bodies were defined by a radius of 10 μm from the outer edge of the defined nucleus. Overlapping cells were automatically segmented according to the Cellomics ArrayScanV CompartmentAnalysisV2 object segmentation feature. EGFP fluorescence (Ch2: excitation 488 nm; emission 509 nm) was used for puncta detection. […] Torsin1a puncta were identified using the spot detection feature of the Compartmental AnalysisV2 protocol. The percentage of cells containing one or more puncta was used as the primary metric in this assay.
(§1) In order to test this model directly, the delta-E Torsin1a cell line was treated with compounds targeting the eIF2-alpha signaling pathway (FIG. 2). […] The following day, serial drug dilutions were prepared at 2× final concentration in assay media containing 10 μg/mL tetracycline and 30 μL of the drug/tetracycline mixture was added to the appropriate wells, while control wells received 30 μL of assay media alone or assay media+10 μg/mL tetracycline (final tetracycline concentration for all wells except negative controls: 5 μg/mL). Cells were then incubated at 37° C./5% CO^2 for 48 hours and fixed, permeabilized, Hoechst stained, and imaged as described above. The range of the Torsin1a localization effect was normalized to the percentage of cells with puncta in vehicle-treated delta-E cell line as the maximum and that in WT cell line as the minimum (FIG. 2, panels c-h). Cell count and EGFP-Torsin1a expression were normalized to their respective values in the vehicle-treated delta-E cell line as the maximum. All dose response data are the average of 4 independent experiments per dose. Untreated control data used for normalization are the average of 24 independent experiments.

[2] = system: Flp-In T-REx 293 cells expressing delta-E Torsin1a; assay: Cytotoxicity (cell count, cellular morphology) in the Torsin1a assay cell line; format: cell-based, human; settings: for ΔE TorsinA Mislocalization Assay Cytotoxicity EC50: Table 5; for Cytotox CC-v2 (dose response Curve Class) / Cytotox Efficacy / Cytotox Max Resp / AC50: Table 6; for toxicity (cell count, cellular morphology; in words): at effective concentrations; for AC50: read-out: Cytotox AC50
Protocol: as §1
(§2) Efficacy is calculated as the magnitude of the pathology correction relative to the mutant Torsin1a pathology. For example an efficacy=−100% would be equivalent to the WT TorsinA phenotype, and 0% would be equivalent to the Mutant TorsinA phenotype. CCv2 refers to the dose response Curve Class annotation, and AC refers to Active Concentration.

[3] = as above; format: cell-based, human; settings: human; for AC50: Table 6, read-out: Cytotox AC50; for EC50 at 48 h: Flp-In T-REx 293 cells inducibly expressing delta-E Torsin1a, Table 5, read-out: ΔE TorsinA Mislocalization Assay Cytotoxicity EC50
Protocol: as §1, §2

## CC(C)CN(C[C@@H](O)[C@H](Cc1ccccc1)NC(=O)O[C@H]1CCOC1)S(=O)(=O)c1ccc(N)cc1 [Amprenavir]
Luciferase secretion
  C.Luc. Secretion Assay Secretion EC50: No Activity
[1]
  ΔE TorsinA Mislocalization Assay Localization EC50: No Activity
[2]
  ΔE TorsinA Mislocalization Assay Cytotoxicity EC50: None
  Cytotox CC-v2 (dose response Curve Class): 4

## COC(=O)N[C@H](C(=O)N[C@@H](Cc1ccccc1)[C@@H](O)CN(Cc1ccc(-c2ccccn2)cc1)NC(=O)[C@@H](NC(=O)OC)C(C)(C)C)C(C)(C)C [Atazanavir]
Luciferase secretion
  C.Luc. Secretion Assay Secretion EC50: No Activity
[1]
  ΔE TorsinA Mislocalization Assay Localization EC50: No Activity
[2]
  ΔE TorsinA Mislocalization Assay Cytotoxicity EC50: None
  Cytotox CC-v2 (dose response Curve Class): 4

## CCN(CC)CCC(=O)N1N=C(c2c(-c3ccccc3)c3cc(Br)ccc3[nH]c2=O)CC1c1ccc(Br)cc1 (stereo not shown) [CCT020312]
[1]
  effect on delta-E Torsin1a localization (in words): dose-dependent reduction
[2]
  toxicity (cell count, cellular morphology; in words): highly toxic at effective concentrations

## C[C@H](NC(=O)Cc1cc(F)cc(F)c1)C(=O)N[C@H](C(=O)OC(C)(C)C)c1ccccc1 [DAPT]
[1]
  effect on delta-E Torsin1a localization (in words): no effect

## CC(C)CN(C[C@@H](O)[C@H](Cc1ccccc1)NC(=O)O[C@H]1CO[C@H]2OCC[C@H]21)S(=O)(=O)c1ccc(N)cc1 [Darunavir]
Luciferase secretion
  C.Luc. Secretion Assay Secretion EC50: No Activity
[1]
  ΔE TorsinA Mislocalization Assay Localization EC50: No Activity

## Cc1cccc(C)c1OCC(=O)NC(CCC(Cc1ccccc1)NC(=O)C(C(C)C)N1CCCNC1=O)Cc1ccccc1 (stereo not shown) [Des-hydroxy Lopinavir]
[1]
  % pathology CC-v2 (dose response Curve Class): −3
  AC50: 8.33 µM
  % pathology Max Resp: −33.96%
  % pathology Efficacy: −82.44%
[2]
  Cytotox CC-v2 (dose response Curve Class): −2.2
  Cytotox Efficacy: −77.66
  Cytotox Max Resp: −66.67
  AC50: 20.9 µM

## CC(C)(C)NC(=O)[C@@H]1CN(Cc2cccnc2)CCN1C[C@@H](O)C[C@@H](Cc1ccccc1)C(=O)N[C@H]1c2ccccc2C[C@H]1O [Indinavir sulfate]
[1]; Homo sapiens, Flp-In-T-REx-293
  AC50: 29.6 µM
[1]
  % pathology Max Resp: −97.76%
  % pathology Efficacy: −114.60%
[3]
  AC50: 37.2 µM
[2]
  Cytotox CC-v2 (dose response Curve Class): −3
  Cytotox Efficacy: −80.64
  Cytotox Max Resp: −67.80

## CC(C)(C)NC(=O)[C@@H]1CN(Cc2cccnc2)CCN1C[C@@H](O)C[C@@H](Cc1ccccc1)C(=O)N[C@H]1c2ccccc2C[C@H]1O [Indinavir, indinavir]
Luciferase secretion
  C.Luc. Secretion Assay Secretion EC50: No Activity
[1]; Homo sapiens, Flp-In-T-REx-293
  EC50: 26.5 µM
  Emax: 114%
[1]
  effect on delta-E Torsin1a localization (in words): corrected TorsinA localization in a dose-dependent fashion
[3]
  EC50 at 48 h: 35.2 µM
[2]
  toxicity (cell count, cellular morphology; in words): no cellular toxicity observed at effective doses

## CS(=O)(=O)O.Cc1c(O)cccc1C(=O)N[C@@H](CSc1ccccc1)[C@H](O)CN1C[C@H]2CCCC[C@H]2C[C@H]1C(=O)NC(C)(C)C.O [Nelfinavir mesylae hydrate]
[1]
  % pathology CC-v2 (dose response Curve Class): −1.1
  AC50: 2.7 µM
  % pathology Max Resp: −92.46%
  % pathology Efficacy: −75.26%
[2]
  Cytotox CC-v2 (dose response Curve Class): −1.1
  Cytotox Efficacy: −98.05
  Cytotox Max Resp: −95.64
  AC50: 6.05 µM

## Cc1c(O)cccc1C(=O)N[C@@H](CSc1ccccc1)[C@H](O)CN1C[C@H]2CCCC[C@H]2C[C@H]1C(=O)NC(C)(C)C [Nelfinavir, nelfinavir]
Luciferase secretion
  C.Luc. Secretion Assay Secretion EC50: No Activity
[1]; Homo sapiens, Flp-In-T-REx-293
  EC50: 3.49 µM
  Emax: 80%
[1]
  effect on delta-E Torsin1a localization (in words): corrected TorsinA localization in a dose-dependent fashion
[3]
  EC50 at 48 h: 6.05 µM
[2]
  toxicity (cell count, cellular morphology; in words): no cellular toxicity observed at effective doses

## CC(C)c1nc(CN(C)C(=O)N[C@H](C(=O)N[C@@H](Cc2ccccc2)C[C@H](O)[C@H](Cc2ccccc2)NC(=O)OCc2cncs2)C(C)C)cs1 [Ritonavir, ritonavir]
Luciferase secretion
  EC50: 3.72 µM
  Emax: 49%
  correction of secretory deficits (in words): corrected secretory deficits
[1]; Homo sapiens, Flp-In-T-REx-293
  EC50: 4.11 µM
  Emax: 87%
  AC50: 2.96 µM
[1]
  % pathology Max Resp: −82.60%
  % pathology Efficacy: −92.96%
  effect on delta-E Torsin1a localization (in words): corrected TorsinA localization in a dose-dependent fashion; also recorded: restored
[2]
  Cytotox CC-v2 (dose response Curve Class): 4
  toxicity (cell count, cellular morphology; in words): no cellular toxicity observed at effective doses

## CC(C)(C)NC(=O)[C@@H]1C[C@@H]2CCCC[C@@H]2CN1C[C@@H](O)[C@H](Cc1ccccc1)NC(=O)[C@H](CC(N)=O)NC(=O)c1ccc2ccccc2n1 [Saquinavir mesylate]
[1]; Homo sapiens, Flp-In-T-REx-293
  AC50: 8.33 µM
[1]
  % pathology Max Resp: −84.62%
  % pathology Efficacy: −85.98%
[3]
  AC50: 20.9 µM

## CC(C)(C)NC(=O)[C@@H]1C[C@@H]2CCCC[C@@H]2CN1C[C@@H](O)[C@H](Cc1ccccc1)NC(=O)[C@H](CC(N)=O)NC(=O)c1ccc2ccccc2n1 [Saquinavir, saquinavir]
Luciferase secretion
  EC50: 8.09 µM
  Emax: 34%
  correction of secretory deficits (in words): corrected secretory deficits
[1]; Homo sapiens, Flp-In-T-REx-293
  EC50: 9.41 µM
  Emax: 88%
[1]
  effect on delta-E Torsin1a localization (in words): corrected TorsinA localization in a dose-dependent fashion
[3]
  EC50 at 48 h: 23.6 µM

## Cc1c(O)cccc1C(=O)N[C@@H](CSc1ccccc1)[C@H](O)CN1C[C@H]2CCCC[C@H]2C[C@H]1C(=O)NC(C)(C)C [Viracept]
[1]; Homo sapiens, Flp-In-T-REx-293
  AC50: 5.26 µM
[1]
  % pathology Max Resp: −94.06%
  % pathology Efficacy: −119.39%
[3]
  AC50: 10.5 µM
[2]
  Cytotox CC-v2 (dose response Curve Class): −1.1
  Cytotox Efficacy: −106.32
  Cytotox Max Resp: −97.72

## N=C(N)N/N=C/c1c(Cl)cccc1Cl [guanabenz]
[1]
  effect on delta-E Torsin1a localization (in words): no effect

## CCCC(CCC)C(=O)O [valproic acid]
[1]
  effect on delta-E Torsin1a localization (in words): no effect
